Data: patent publication US12479847B2 (DANA-FARBER CANCER INSTITUTE, INC., priority 2019, dated 2025)

Legend:
Assay in all cases: KINOMEscan (ScanMAX) kinase profiling
Assay type in all cases: binding
panel of 468 kinases [1] = biological target: T1, panel of 468 kinases (Homo sapiens, UniProt P33981); conditions: TTK; 1 μM; read-out: % control
T1 construct: purchased KINOMEscan (ScanMAX) service
T1 sequence (P33981 1-857): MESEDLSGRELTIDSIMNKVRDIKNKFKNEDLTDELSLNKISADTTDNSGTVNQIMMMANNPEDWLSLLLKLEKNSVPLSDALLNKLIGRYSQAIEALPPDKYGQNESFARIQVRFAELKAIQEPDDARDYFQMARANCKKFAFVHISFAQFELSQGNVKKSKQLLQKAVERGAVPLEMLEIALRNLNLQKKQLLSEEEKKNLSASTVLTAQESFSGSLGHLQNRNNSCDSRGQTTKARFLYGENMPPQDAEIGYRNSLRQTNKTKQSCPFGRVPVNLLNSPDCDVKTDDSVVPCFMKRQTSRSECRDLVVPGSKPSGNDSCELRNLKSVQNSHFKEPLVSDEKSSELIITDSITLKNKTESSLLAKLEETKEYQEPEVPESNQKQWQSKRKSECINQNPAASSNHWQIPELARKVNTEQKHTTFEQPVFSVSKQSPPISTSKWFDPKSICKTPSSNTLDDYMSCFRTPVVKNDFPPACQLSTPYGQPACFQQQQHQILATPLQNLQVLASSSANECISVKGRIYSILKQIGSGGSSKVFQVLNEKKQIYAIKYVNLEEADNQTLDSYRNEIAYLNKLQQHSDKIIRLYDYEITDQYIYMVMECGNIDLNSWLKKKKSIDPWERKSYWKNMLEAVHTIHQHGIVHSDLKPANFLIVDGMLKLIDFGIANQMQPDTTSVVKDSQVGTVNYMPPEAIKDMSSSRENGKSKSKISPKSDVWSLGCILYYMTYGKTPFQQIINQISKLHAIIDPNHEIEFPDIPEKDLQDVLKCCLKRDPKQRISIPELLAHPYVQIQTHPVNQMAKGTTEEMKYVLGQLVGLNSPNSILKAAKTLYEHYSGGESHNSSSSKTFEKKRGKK

panel of 468 kinases [2] = biological target: T2, panel of 468 kinases (Homo sapiens, UniProt P37023); conditions: ACVRL1; 1 μM; read-out: % control
T2 construct: purchased KINOMEscan (ScanMAX) service
T2 sequence (P37023 22-503): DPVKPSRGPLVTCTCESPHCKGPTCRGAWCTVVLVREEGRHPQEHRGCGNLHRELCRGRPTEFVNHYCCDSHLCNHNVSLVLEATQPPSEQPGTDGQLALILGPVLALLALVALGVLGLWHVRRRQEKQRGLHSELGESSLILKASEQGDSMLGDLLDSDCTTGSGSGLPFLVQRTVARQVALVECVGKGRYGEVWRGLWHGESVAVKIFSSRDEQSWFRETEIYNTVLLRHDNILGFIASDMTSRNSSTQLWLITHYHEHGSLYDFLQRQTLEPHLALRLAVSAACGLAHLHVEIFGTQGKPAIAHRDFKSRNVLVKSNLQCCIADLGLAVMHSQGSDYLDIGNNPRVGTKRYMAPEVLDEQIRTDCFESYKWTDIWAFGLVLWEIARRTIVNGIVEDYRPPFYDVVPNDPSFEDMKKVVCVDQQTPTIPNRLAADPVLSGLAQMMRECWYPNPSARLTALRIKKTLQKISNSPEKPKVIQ

panel of 468 kinases [3] = biological target: T3, panel of 468 kinases (Homo sapiens, UniProt Q8WU08); conditions: YANK1; 1 μM; read-out: % control
T3 construct: purchased KINOMEscan (ScanMAX) service
T3 sequence (Q8WU08 whole entry): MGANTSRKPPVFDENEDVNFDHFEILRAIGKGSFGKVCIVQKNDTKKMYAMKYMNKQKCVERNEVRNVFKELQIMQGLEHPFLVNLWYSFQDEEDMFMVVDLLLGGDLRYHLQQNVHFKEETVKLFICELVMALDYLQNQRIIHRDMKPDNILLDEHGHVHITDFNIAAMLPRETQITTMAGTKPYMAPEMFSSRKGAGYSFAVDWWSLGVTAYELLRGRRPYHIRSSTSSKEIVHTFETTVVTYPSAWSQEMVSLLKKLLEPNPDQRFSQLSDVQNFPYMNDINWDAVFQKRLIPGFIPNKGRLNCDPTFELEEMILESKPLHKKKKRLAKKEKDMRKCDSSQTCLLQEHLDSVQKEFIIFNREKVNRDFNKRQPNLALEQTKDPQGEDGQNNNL

panel of 468 kinases [4] = biological target: T4, panel of 468 kinases (Homo sapiens, UniProt P42336, Q546K); conditions: PIK3CA(Q546K); 1 μM; read-out: % control
T4 construct: purchased KINOMEscan (ScanMAX) service
T4 sequence (P42336 whole entry Q546K): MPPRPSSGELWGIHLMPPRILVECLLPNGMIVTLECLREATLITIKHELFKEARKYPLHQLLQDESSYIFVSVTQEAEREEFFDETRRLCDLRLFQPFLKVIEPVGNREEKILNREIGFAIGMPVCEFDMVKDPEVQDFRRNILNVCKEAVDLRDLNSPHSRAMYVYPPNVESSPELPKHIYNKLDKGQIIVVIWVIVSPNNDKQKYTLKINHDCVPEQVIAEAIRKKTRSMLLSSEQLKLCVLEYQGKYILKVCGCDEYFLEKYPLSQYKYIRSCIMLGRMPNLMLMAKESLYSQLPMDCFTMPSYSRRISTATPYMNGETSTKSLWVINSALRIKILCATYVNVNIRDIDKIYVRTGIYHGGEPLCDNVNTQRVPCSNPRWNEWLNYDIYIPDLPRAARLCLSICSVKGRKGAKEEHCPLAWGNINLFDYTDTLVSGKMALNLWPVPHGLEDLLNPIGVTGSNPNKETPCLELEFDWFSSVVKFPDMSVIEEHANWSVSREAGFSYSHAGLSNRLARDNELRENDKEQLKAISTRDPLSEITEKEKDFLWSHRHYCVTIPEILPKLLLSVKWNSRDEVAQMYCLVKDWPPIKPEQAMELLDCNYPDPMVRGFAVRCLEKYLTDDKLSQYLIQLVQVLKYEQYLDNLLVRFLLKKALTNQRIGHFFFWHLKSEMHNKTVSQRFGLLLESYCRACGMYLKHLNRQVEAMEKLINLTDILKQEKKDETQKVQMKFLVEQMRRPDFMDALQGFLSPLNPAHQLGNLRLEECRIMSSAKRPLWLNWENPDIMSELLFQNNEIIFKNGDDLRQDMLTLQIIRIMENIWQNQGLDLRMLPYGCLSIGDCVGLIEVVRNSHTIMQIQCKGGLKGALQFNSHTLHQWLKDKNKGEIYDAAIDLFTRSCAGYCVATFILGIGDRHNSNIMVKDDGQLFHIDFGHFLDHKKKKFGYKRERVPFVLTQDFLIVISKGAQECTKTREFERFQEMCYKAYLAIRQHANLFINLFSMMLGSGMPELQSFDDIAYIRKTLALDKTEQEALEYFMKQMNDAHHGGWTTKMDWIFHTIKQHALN

panel of 468 kinases [5] = biological target: T5, panel of 468 kinases (Homo sapiens, UniProt Q13627); conditions: DYRK1A; 1 μM; read-out: % control
T5 construct: purchased KINOMEscan (ScanMAX) service

panel of 468 kinases [6] = biological target: T6, panel of 468 kinases (Homo sapiens, UniProt O14757); conditions: CHEK1; 1 μM; read-out: % control
T6 construct: purchased KINOMEscan (ScanMAX) service
T6 sequence (O14757 1-476): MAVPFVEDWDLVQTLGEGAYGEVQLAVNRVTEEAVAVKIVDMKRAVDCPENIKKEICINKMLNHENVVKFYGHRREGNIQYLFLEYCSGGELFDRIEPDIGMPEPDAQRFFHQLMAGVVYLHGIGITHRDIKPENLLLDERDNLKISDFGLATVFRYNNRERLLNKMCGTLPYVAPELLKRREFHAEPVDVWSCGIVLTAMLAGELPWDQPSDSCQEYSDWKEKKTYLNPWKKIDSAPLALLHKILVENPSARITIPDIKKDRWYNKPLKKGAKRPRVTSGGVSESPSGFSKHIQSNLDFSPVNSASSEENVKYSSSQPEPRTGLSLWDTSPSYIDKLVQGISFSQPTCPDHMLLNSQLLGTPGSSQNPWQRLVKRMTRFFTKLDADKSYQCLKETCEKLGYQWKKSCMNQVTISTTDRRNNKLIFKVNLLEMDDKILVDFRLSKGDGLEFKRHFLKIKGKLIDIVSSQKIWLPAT

panel of 468 kinases [7] = biological target: T7, panel of 468 kinases (Homo sapiens, UniProt Q92630); conditions: DYRK2; 1 μM; read-out: % control
T7 construct: purchased KINOMEscan (ScanMAX) service
T7 sequence (Q92630 1-601): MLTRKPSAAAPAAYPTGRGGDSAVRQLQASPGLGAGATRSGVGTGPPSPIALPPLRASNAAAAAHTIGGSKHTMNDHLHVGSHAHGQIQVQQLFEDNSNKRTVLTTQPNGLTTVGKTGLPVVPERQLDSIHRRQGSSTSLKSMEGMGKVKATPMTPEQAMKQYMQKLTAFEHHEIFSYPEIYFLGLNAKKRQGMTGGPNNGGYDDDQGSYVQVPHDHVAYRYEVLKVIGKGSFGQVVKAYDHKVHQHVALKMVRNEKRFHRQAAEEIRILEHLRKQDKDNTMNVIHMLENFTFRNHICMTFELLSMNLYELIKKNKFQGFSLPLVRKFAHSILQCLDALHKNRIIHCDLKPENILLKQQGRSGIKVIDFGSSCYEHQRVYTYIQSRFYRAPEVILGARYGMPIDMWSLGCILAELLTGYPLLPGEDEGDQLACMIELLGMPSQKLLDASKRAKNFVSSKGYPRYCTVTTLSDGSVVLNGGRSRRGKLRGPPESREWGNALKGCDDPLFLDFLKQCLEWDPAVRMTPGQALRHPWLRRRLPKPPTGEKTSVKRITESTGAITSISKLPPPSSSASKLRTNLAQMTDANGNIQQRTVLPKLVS

Row | Structure (SMILES) | remaining binding at 1 µM (panel of 468 kinases [1]) | remaining binding at 1 µM (panel of 468 kinases [2]) | remaining binding at 1 µM (panel of 468 kinases [3]) | remaining binding at 1 µM (panel of 468 kinases [4]) | remaining binding at 1 µM (panel of 468 kinases [5]) | remaining binding at 1 µM (panel of 468 kinases [6]) | remaining binding at 1 µM (panel of 468 kinases [7])
1 | CNc1nc(Nc2ccc(S(=O)(=O)N3CCC(N4CCOCC4)CC3)cc2OC)nc2[nH]cc(Cl)c12 [Compound 12, 5-chloro-N2-(2-methoxy-4-((4-morpholinopiperidin-1-yl)sulfonyl)phenyl)-N4-methyl-7H-pyrrolo[2,3-d]pyrimidine-2,4-diamine] | 1% | 100% | 100% | 50% | 14% | 100% | 13%
2 | CNc1nc(Nc2ccc(C(=O)N3CCC(N4CCOCC4)CC3)c3c2OCO3)nc2[nH]cc(Cl)c12 [Compound 75, (7-((5-chloro-4-(methylamino)-7H-pyrrolo[2,3-d]pyrimidin-2-yl)amino)benzo[d][1,3]dioxol-4-yl)(4-morpholinopiperidin-1-yl)methanone] | 0.6% | 100% | 100% | 65% | 8.9% | 67% | 14%
3 | CNc1nc(Nc2ccc(P3(=O)CCN(C4CCOCC4)CC3)cc2OC)nc2[nH]cc(Cl)c12 [Compound 77, 4-(4-((5-chloro-4-(methylamino)-7H-pyrrolo[2,3-d]pyrimidin-2-yl)amino)-3-methoxyphenyl)-1-(tetrahydro-2H-pyran-4-yl)-1,4-azaphosphinane 4-oxide] | 0.5% | 100% | 98% | 46% | 4.7% | 100% | 47%
